Test system: 994946-033-R-J1-PDC complex spheroid viability
Assay: Anticancer human tumor 994946-033-R-J1-PDC patient-derived melanoma cell line growth inhibition [POLQ]
Conditions: for IC50: curve of first compound; for viability, T/C: stronger effect = lower value
How it was run: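 Complex spheroid viability model combining PDC tumour cells with endothelial (HUVEC) and MSC stromal cells. Novobiocin, ART-558 or RP6685 were tested singly and in combination with standard and investigational anticancer drugs. Each was titrated in half-log steps from near clinical Cmax, or from 10 microM where Cmax was unknown.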
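Also: spheroids exposed to drugs for 7 days.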
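For viability, T/C in this document: 100% = DMSO vehicle treated spheroids.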

**Q.** With `C#Cc1c(F)ccc2cc(O)cc(-c3ncc4c(N5CC6CCC(C5)N6)nc(OCC56CCCN5CC(F)C6)nc4c3F)c12` (configuration not stated) + Cc1cccc(N(C)C(=O)C2C(O)CCN2c2nc(C)cc(C(F)(F)F)c2C#N)c1 as the molecule, how does the IC50 (second compound 0.0316 µM) read?
**A.** 5.05 µM

**Q.** And the IC50 (second compound 0.1 µM)?
**A.** 7.26 µM

**Q.** What about the IC50 (second compound 0.316 µM) of the same molecule?
**A.** 4.35 µM

**Q.** What about the IC50 (second compound 1 µM) of the same molecule?
**A.** 5.27 µM

**Q.** What about the IC50 (second compound 3.16 µM) of the same molecule?
**A.** 4.78 µM

**Q.** What about the IC50 (second compound 10 µM) of the same molecule?
**A.** 5.91 µM

**Q.** And the viability, T/C (second compound 0.0316 µM, first compound 0.0316 µM)?
**A.** 97.6%

**Q.** What about the viability, T/C (second compound 0.0316 µM, first compound 0.1 µM) of the same molecule?
**A.** 103%

**Q.** What about the viability, T/C (second compound 0.0316 µM, first compound 0.316 µM) of the same molecule?
**A.** 101%

**Q.** What about the viability, T/C (second compound 0.0316 µM, first compound 1 µM) of the same molecule?
**A.** 93.8%

**Q.** What about the viability, T/C (second compound 0.0316 µM, first compound 3.16 µM) of the same molecule?
**A.** 76.5%

**Q.** And the viability, T/C (second compound 0.0316 µM, first compound 10 µM)?
**A.** 12%

**Q.** And the viability, T/C (second compound 0.1 µM, first compound 0.0316 µM)?
**A.** 77%

**Q.** What about the viability, T/C (second compound 0.1 µM, first compound 0.1 µM) of the same molecule?
**A.** 112%

**Q.** And the viability, T/C (second compound 0.1 µM, first compound 0.316 µM)?
**A.** 101%

**Q.** What about the viability, T/C (second compound 0.1 µM, first compound 1 µM) of the same molecule?
**A.** 106%

**Q.** What about the viability, T/C (second compound 0.1 µM, first compound 3.16 µM) of the same molecule?
**A.** 103%

**Q.** And the viability, T/C (second compound 0.1 µM, first compound 10 µM)?
**A.** 30.7%

**Q.** What about the viability, T/C (second compound 0.316 µM, first compound 0.0316 µM) of the same molecule?
**A.** 119%

**Q.** What about the viability, T/C (second compound 0.316 µM, first compound 0.1 µM) of the same molecule?
**A.** 102%

**Q.** What about the viability, T/C (second compound 0.316 µM, first compound 0.316 µM) of the same molecule?
**A.** 114%

**Q.** What about the viability, T/C (second compound 0.316 µM, first compound 1 µM) of the same molecule?
**A.** 82%

**Q.** And the viability, T/C (second compound 0.316 µM, first compound 3.16 µM)?
**A.** 64.7%

**Q.** What about the viability, T/C (second compound 0.316 µM, first compound 10 µM) of the same molecule?
**A.** 18.1%

**Q.** And the viability, T/C (second compound 1 µM, first compound 0.0316 µM)?
**A.** 121%

**Q.** What about the viability, T/C (second compound 1 µM, first compound 0.1 µM) of the same molecule?
**A.** 99.5%

**Q.** What about the viability, T/C (second compound 1 µM, first compound 0.316 µM) of the same molecule?
**A.** 105%

**Q.** And the viability, T/C (second compound 1 µM, first compound 1 µM)?
**A.** 107%

**Q.** What about the viability, T/C (second compound 1 µM, first compound 3.16 µM) of the same molecule?
**A.** 82.7%

**Q.** And the viability, T/C (second compound 1 µM, first compound 10 µM)?
**A.** 9.05%

**Q.** What about the viability, T/C (second compound 3.16 µM, first compound 0.0316 µM) of the same molecule?
**A.** 106%

**Q.** And the viability, T/C (second compound 3.16 µM, first compound 0.1 µM)?
**A.** 95.3%

**Q.** And the viability, T/C (second compound 3.16 µM, first compound 0.316 µM)?
**A.** 79.1%

**Q.** What about the viability, T/C (second compound 3.16 µM, first compound 1 µM) of the same molecule?
**A.** 82.8%

**Q.** What about the viability, T/C (second compound 3.16 µM, first compound 3.16 µM) of the same molecule?
**A.** 78.3%

**Q.** What about the viability, T/C (second compound 3.16 µM, first compound 10 µM) of the same molecule?
**A.** 5.59%

**Q.** And the viability, T/C (second compound 10 µM, first compound 0.0316 µM)?
**A.** 111%

**Q.** What about the viability, T/C (second compound 10 µM, first compound 0.1 µM) of the same molecule?
**A.** 104%

**Q.** And the viability, T/C (second compound 10 µM, first compound 0.316 µM)?
**A.** 97.7%

**Q.** And the viability, T/C (second compound 10 µM, first compound 1 µM)?
**A.** 95.9%

**Q.** What about the viability, T/C (second compound 10 µM, first compound 3.16 µM) of the same molecule?
**A.** 114%

**Q.** And the viability, T/C (second compound 10 µM, first compound 10 µM)?
**A.** 4.03%

Source: PubChem BioAssay AID1963827 (Molecular Pharmacology Branch, DTP, NCI, 2024)
